From US11597724B2, “Herbicidally active 3-phenylisoxazoline-5-carboxamides of tetrahydro and dihydrofuran carboxylic acids and esters” (Bayer Aktiengesellschaft, priority 2017, dated 2023)

Experiments:
Type in all cases: in vivo
Veronica persica = assay: Pre-emergence herbicidal activity against VERPE; settings: dosage 80 g/ha; for pest or weed control at 80 g/ha: Veronica persica, 504 h
From the text: (§1) 1. Pre-Emergence Herbicidal Action and Crop Plant Compatibility Seeds of monocotyledonous and dicotyledonous weed plants and crop plants are placed in plastic or wood fiber pots and covered with soil. The compounds of the invention, formulated in the form of wettable powders (WP) or as emulsion concentrates (EC), are then applied onto the surface of the covering soil as aqueous suspension or emulsion with addition of 0.5% additive at a water application rate of 600 l/ha (converted). After the treatment, the pots are placed in a greenhouse and kept under good growth conditions for the trial plants. After about 3 weeks, the effect of the preparations is scored visually in comparison with untreated controls as percentages. For example, 100% activity=the plants have died, 0% activity=like control plants. STEME: Stellaria media VERPE: Veronica persica

Amaranthus retroflexus = assay: Post-emergence herbicidal activity against AMARE; settings: dosage 320 g/ha, rated about 3 weeks after treatment; for pest or weed control at 320 g/ha: Amaranthus retroflexus, 504 h
In short: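 Greenhouse pots of sandy loam; plants sprayed at one-leaf stage, 2 to 3 weeks after sowing, with WP or EC formulations in water plus 0.5% additive at 600 l/ha. Activity rated visually after about 3 weeks against untreated controls (100% = plants dead, 0% = like control).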

Pharbitis purpurea = assay: Post-emergence herbicidal activity against PHBPU; settings: dosage 320 g/ha, rated about 3 weeks after treatment; for pest or weed control at 320 g/ha: Ipomoea purpurea, 504 h
In short: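 Greenhouse-grown plants sprayed post-emergence at the one-leaf stage, 2 to 3 weeks after sowing, with WP or EC formulations plus 0.5% additive at 600 l/ha water. Activity rated visually after about 3 weeks versus untreated controls (100% = plants dead, 0% = like control).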

Stellaria media [1] = assay: Pre-emergence herbicidal activity against STEME; settings: dosage 80 g/ha; for pest or weed control at 80 g/ha: Stellaria media, 504 h
In short: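 Weed seeds sown in pots and covered with soil, then WP or EC formulations sprayed onto the soil surface as aqueous suspension/emulsion with 0.5% additive at 600 l/ha water. Kept in greenhouse; visual percent effect versus untreated controls scored after about 3 weeks (100% = plants dead).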

Hordeum murinum = assay: Post-emergence herbicidal activity against HORMU; settings: dosage 320 g/ha; for pest or weed control at 320 g/ha: Hordeum murinum, 504 h
In short: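 Greenhouse pot plants sprayed post-emergence at one-leaf stage (2-3 weeks after sowing) with WP or EC formulations, 0.5% additive, 600 l/ha water. Visual rating about 3 weeks later versus untreated controls: 100% = plants dead, 0% = like control.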

Alopecurus myosuroides [2] = assay: Post-emergence herbicidal activity against ALOMY; settings: dosage 320 g/ha, rated about 3 weeks after treatment; for pest or weed control at 320 g/ha: Alopecurus myosuroides, 504 h
In short: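 Greenhouse-grown plants treated at one-leaf stage, 2 to 3 weeks after sowing, with WP or EC formulations sprayed as aqueous suspension/emulsion plus 0.5% additive at 600 l/ha. Activity rated visually about 3 weeks later versus untreated controls (100% = plants dead, 0% = like control).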

Stellaria media [3] = assay: Post-emergence herbicidal activity against STEME; settings: dosage 320 g/ha, rated about 3 weeks after treatment; for pest or weed control at 320 g/ha: Stellaria media, 504 h
In short: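 Greenhouse plants treated at one-leaf stage, 2–3 weeks after sowing, by spraying WP or EC formulations with 0.5% additive at 600 l/ha water. Visual rating about 3 weeks later versus untreated controls (100% = plants dead, 0% = like controls).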

Alopecurus myosuroides [4] = assay: Pre-emergence herbicidal activity against ALOMY; settings: dosage 80 g/ha, scored visually after about 3 weeks vs untreated controls (100% = plants have died, 0% = like control plants); for pest or weed control at 80 g/ha: Alopecurus myosuroides, 504 h
From the text: as §1, with “ABUTH: Abutilon theophrasti ALOMY: Alopecurus myosuroides” for “STEME: Stellaria media VERPE: Veronica persica”

SMILES	pest or weed control at 80 g/ha (Veronica persica) [%]	pest or weed control at 320 g/ha (Amaranthus retroflexus) [%]	pest or weed control at 320 g/ha (Pharbitis purpurea) [%]	pest or weed control at 80 g/ha (Stellaria media [1]) [%]	pest or weed control at 320 g/ha (Hordeum murinum) [%]	pest or weed control at 320 g/ha (Alopecurus myosuroides [2]) [%]	pest or weed control at 320 g/ha (Stellaria media [3]) [%]	pest or weed control at 80 g/ha (Alopecurus myosuroides [4]) [%]	Post-emergence herbicidal activity against AMARE in % (Amaranthus retroflexus) [%]	Post-emergence herbicidal activity against PHBPU in % (Pharbitis purpurea) [%]	Post-emergence herbicidal activity against HORMU in % (Hordeum murinum) [%]	Post-emergence herbicidal activity against ALOMY in % (Alopecurus myosuroides [2]) [%]	Post-emergence herbicidal activity against STEME in % (Stellaria media [3]) [%]	Pre-emergence herbicidal activity against VERPE in % (Veronica persica) [%]	Pre-emergence herbicidal activity against STEME in % (Stellaria media [1]) [%]	Pre-emergence herbicidal activity against ALOMY in % (Alopecurus myosuroides [4]) [%]
C=C[C@]1(C(=O)N[C@H]2CO[C@@H](C(=O)OC(C)C)C2)CC(c2cc(F)cc(F)c2)=NO1 (mixture of isomers) [I-36, isopropyl cis-4-[[(5S)-3-(3,5-difluorophenyl)-5-vinyl-4H-isoxazole-5-carbonyl]amino]tetrahydrofuran-2-carboxylate]	100	90	80	100	90	90	90	100								
CC(C)(C)OC(=O)[C@H]1C[C@@H](NC(=O)C2(C)CC(c3cccc(F)c3)=NO2)CO1 (mixture of isomers) [I-33, tert-butyl cis-4-[[(5RS)-3-(3-fluorophenyl)-5-methyl-4H-isoxazole-5-carbonyl]amino]tetrahydrofuran-2-carboxylate]	100	90	90	100	90	100	90	100								
C=C[C@]1(C(=O)N[C@H]2CO[C@@H](C(=O)OC)C2)CC(c2cc(F)cc(F)c2)=NO1 (single isomer, unassigned) [I-12]	100			100				100	90	90	90	90	90			
CC(C)OC(=O)C1CC(NC(=O)C2(C)CC(c3cc(F)cc(F)c3)=NO2)CO1 (stereo not shown) [I-44]									80	90	100	100	90	80	90	100
C=C[C@]1(C(=O)N[C@H]2CO[C@@H](C(=O)OC)C2)CC(c2cc(F)cc(F)c2)=NO1 (single isomer, unassigned) [I-11]		90	90		100	90	90							100	100	100
CCOC(=O)C1CC(NC(=O)C2(C)CC(c3cc(F)cc(F)c3)=NO2)CO1 (mixture of isomers) [I-43]									80	90	100	100	100	90	100	100
CC1(C(=O)NC2COC(C(=O)OCc3ccccc3)C2)CC(c2cc(F)cc(F)c2)=NO1 (mixture of isomers) [I-45]									80	90	100	100	90	80	100	100
COC(=O)C1=C[C@@H](NC(=O)C2(C)CC(c3cccc(F)c3)=NO2)CO1 (stereo partly drawn) [I-46, methyl (3R)-3-[[3-(3-fluorophenyl)-5-methyl-4H-isoxazole-5-carbonyl]amino]-2,3-dihydrofuran-5-carboxylate]	80	80	90	100	100	100	90	100								
COC(=O)C1CC(NC(=O)C2(C)CC(c3cc(F)cc(F)c3)=NO2)CO1 (mixture of isomers) [I-48]									80	80	90	90	90	100	100	100
CC(C)(C)OC(=O)C1CC(NC(=O)C2(C)CC(c3cc(F)cc(F)c3)=NO2)CO1 (mixture of isomers) [I-42]									80	90	100	100	90	90	100	100
C=C[C@]1(C(=O)N[C@H]2CO[C@@H](C(=O)OCC)C2)CC(c2cc(F)cc(F)c2)=NO1 (mixture of isomers) [I-35, ethyl cis-4-[[(5S)-3-(3,5-difluorophenyl)-5-vinyl-4H-isoxazole-5-carbonyl]amino]tetrahydrofuran-2-carboxylate]	100	90	90	100	100	100	90	100								
